Our source for the RP-LC retention time values is the METLIN SMRT retention time set (Domingo-Almenara et al. 2019).

Molecules are shown by their SMILES.

A short description of the series: gradient 5% acetonitrile 3 min, to 50% in 2 min, to 85% in 15 min, held 3 min, 100 µL/min. To be noted: column: Zorbax Extend-C18 2.1 x 50 mm; eluents: water / acetonitrile, 0.1% formic acid. In a few lines:
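Standards, all pure, were combined into mixtures of ~100 molecules and run at 100 μL/min on a Zorbax Extend-C18 column (2.1 × 50 mm, 1.8 μm) with water and acetonitrile, each containing 0.1% formic acid. A coupled quadrupole time-of-flight mass spectrometer operated in positive and negative ionization mode. Retention time values come from computationally picked adduct peaks, each inspected manually.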
For the molecule `O=C(NCCOc1ccc(F)cc1)C(c1ccccc1)n1cccc1` (configuration not stated), the RP-LC retention time is 927 s.

Take `CCn1c(=O)c(C(=O)NCc2cc(F)ccc2F)nc2cccnc21`: the RP-LC retention time turned out to be 802 s.

In the case of `Cn1c(=O)c2nc(S(=O)(=O)CCC(=O)Nc3ccc(F)cc3Cl)n(C)c2n(C)c1=O`, the RP-LC retention time was 758 s.

Molecule `O=C(NCCN1CCOCC1)C1CCN(c2ccc3nnc(-c4ccccc4F)n3n2)CC1` had an RP-LC retention time of 693 s.

Consider `Cc1ncc2c(n1)CCN(C(=O)c1ccc(Br)cc1)C2`, for which the RP-LC retention time is 675 s.

As for `Cn1nccc1C(=O)N1CC2CN(S(=O)(=O)c3cccc(F)c3)CC(C1)O2`, the RP-LC retention time was 693 s.

`O=C(CNC(=O)c1ccc(=O)[nH]c1)NCc1ccc(OCc2ccccc2)cc1` yielded an RP-LC retention time of 661 s.

`CC(C)C(=O)NCCc1csc(C2CCCN(C(=O)C(C)(C)C)C2)n1` (configuration not stated) gave an RP-LC retention time of 734 s.

Molecule `COc1cccc(CNC(=O)N2CCCC(Cn3cnc4cccnc43)C2)c1` (configuration not stated) came in with an RP-LC retention time of 654 s.

The molecule `Cc1ccc(NC(=O)N2CCc3nc[nH]c3C2)c(Cl)c1` showed an RP-LC retention time of 585 s.

`CN1CCN(S(=O)(=O)c2ccc(C3CCCCC3)cc2)CC1`: the RP-LC retention time came to 616 s.

Turning to `CC(C)NC(=O)c1ccc(OCC2CCCN2C(=O)c2ccc(C(F)(F)F)cc2)cc1` (configuration not stated), the RP-LC retention time was found to be 914 s.

As for `Cc1cccc(-c2noc(C3CCCN3C(=O)NC(C)C)n2)c1` (configuration not stated), the RP-LC retention time came to 897 s.

In turn, `COc1cc(NC(=O)N2C[C@@H](F)C[C@H]2C(=O)N2CCc3ccccc3C2)cc(OC)c1` showed an RP-LC retention time of 752 s.

Take `Cc1ccc2cc(CCC(=O)NCCCN3CCCCC3C)c(=O)[nH]c2c1` (configuration not stated): the RP-LC retention time was determined as 590 s.

In turn, `COC(=O)c1c(C)[nH]c(C(=O)N2CCC(CC(=O)NCc3ccc(SC)cc3)CC2)c1C` had an RP-LC retention time of 774 s.

`COc1ccc(CNS(=O)(=O)c2cc3c(s2)CCN(C(=O)C2CC2)C3)cc1`: the RP-LC retention time was determined as 812 s.

`Cc1cc(NC(=O)N2C[C@@H](F)C[C@H]2C(=O)N2CCCCC2)ccc1Br` showed an RP-LC retention time of 824 s.

Take `CCN1CCN(c2ccc(NC(=O)c3ccccc3Cl)cn2)C1=O`: the RP-LC retention time turned out to be 672 s.

Regarding `CC(=O)N1c2ccc(S(=O)(=O)N3CCCCC3)cc2CC1C(=O)NCCc1ccc(Cl)cc1` (configuration not stated), the RP-LC retention time is 924 s.

As to `O=C(c1ccc(F)cc1Cl)N1CCN(c2cc(-c3ccc(F)cc3)[nH]n2)CC1`, the RP-LC retention time was 837 s.

Molecule `O=C(CSc1nnc2ccc(-c3cccnc3)nn12)NCc1cccs1` showed an RP-LC retention time of 588 s.

In turn, `CCCn1c(=O)sc2cc(S(=O)(=O)N3CCC(C(=O)NCc4cccc(C)c4)CC3)ccc21` registered an RP-LC retention time of 975 s.

Molecule `COc1ccc(C(=O)N2CCc3ccc(C(=O)O)cc32)cc1` gave an RP-LC retention time of 741 s.

As to `O=C(COc1ccc(Cl)cc1)Nc1ccc2c(c1)N(C(=O)c1ccco1)CCC2`, the RP-LC retention time was found to be 948 s.

`CCOC(=O)CC(=O)Nc1nnc(SCc2nnc(-c3ccccc3C)o2)s1` gave an RP-LC retention time of 817 s.

Take `CCN1C(=O)c2cc(C(=O)Nc3ccc(C)cc3)nn2CC1(C)C(=O)NC1CCCC1` (configuration not stated): the RP-LC retention time worked out at 807 s.

In the case of `CCN(CC)C(=O)C1CCN(c2nc3ccc(-c4cccs4)nc3s2)CC1`, the RP-LC retention time turned out to be 992 s.

On to `COc1cccc(N2CC(C(=O)N3CC(c4nc(Cc5ccccc5)no4)C3)CC2=O)c1` (configuration not stated), for which the RP-LC retention time turned out to be 776 s.

The molecule `CCN1CCn2cc(S(=O)(=O)Nc3ccc(C(=O)OC)cc3)cc2C1=O` yielded an RP-LC retention time of 692 s.

For the molecule `C=C(C)CN1CC[C@]23c4c5ccc(O)c4O[C@H]2c2[nH]c4ccccc4c2C[C@@]3(O)[C@H]1C5`, the RP-LC retention time was found to be 647 s.

`CCCN1C(=O)COc2ccc(-c3noc(CCc4c[nH]c5ccccc45)n3)cc21` displayed an RP-LC retention time of 1110 s.
